According to ChEMBL document CHEMBL5724558, “Image-based profiling of drug vulnerabilities in CRC organoids” (2024):
Several values for one entry are separate records, joined by “and”; a condition that tells them apart may be missing. Identical values can stand only once.

Assays:
Format in all cases: functional, Homo sapiens
Design in all cases: dose or concentration left out as unconfirmed
Colon cancer organoid [1] = assay: (§1) Image-based profiling of donated chemical probes and chemogenomic kinase set in O06 CRC organoid. Image analysis is performed on the sum area metric, and the data were normalized to the DMSO control. After imaging the organoid viability is measured using the OneGloEX Luciferase Assay System. The normalized viability data and sum area are reported.
Colon cancer organoid [2] = assay: as §1, with “O09” for “O06”
Colon cancer organoid [3] = assay: as §1, with “O21” for “O06”

SMILES | Cell Viability (Colon cancer organoid [1]; Replication number 1) | Cell Viability (Colon cancer organoid [1]; Replication number 2) | Cell Viability (Colon cancer organoid [2]; Replication number 1) | Cell Viability (Colon cancer organoid [2]; Replication number 2) | Cell Viability (Colon cancer organoid [3]; Replication number 1) | Cell Viability (Colon cancer organoid [3]; Replication number 2)
Cc1cc2c(cc1N1C(=O)c3cccc4c(CCCO)ccc(c34)C1=O)n(C)c(=O)n2C | 68.0185% and 75.3826% | 71.5666% and 43.0165% | 57.3322% and 75.8114% | 118.076% and 83.8137% | 93.3541% and 102.286% | 93.8629% and 86.4558%
CC1=C(C#N)C(c2ccc3[nH]nc(C)c3c2)C(C#N)=C(C)N1 [BAY-474] | 114.031% and 109.602% | 118.528% and 111.578% | 97.0801% and 99.3894% | 77.9563% and 84.1183% | 98.4176% and 90.2329% | 78.5633% and 94.3878%
CCOc1cn(-c2ccc(F)cc2C)nc1C(=O)Nc1ccc(Oc2ccnc3cc(OC)c(OC)cc23)c(F)c1 | 102.988% and 123.299% and 120.024% and 109.723% | 127.856% and 122.776% and 99.2168% and 90.0771% | 106.171% and 88.0162% and 65.7353% and 75.3% | 96.6425% [middle of 4 runs] | 103.157% and 102.021% and 78.4654% and 79.1638% | 106.966% and 96.7254% and 100.887% and 106.513%
O=C(NCCCN1CCOC1=O)c1cnc(NCc2cc(Br)ccc2Br)nc1NC1CCCC1 | 128.504% and 125.145% | 109.486% and 115.731% | 172.879% and 128.436% | 143.806% and 111.114% | 88.4413% and 90.6749% | 101.16% and 88.408%
Cc1cc(CN)cc(C)c1-c1ncn(C)c1-c1cncn1C | 108.725% and 89.8792% | 171.9% and 107.541% | 189.71% and 98.9954% | 198.722% and 106.905% | 118.759% and 94.0562% | 98.6287% and 80.0119%
CCC(=O)N1CCN(c2ccc(-n3c(=O)ccc4cnc5ccc(-c6cnc7ccccc7c6)cc5c43)cc2C(F)(F)F)CC1 [TORIN1] | 3.399% and 11.5065% |  | 18.1039% and 19.199% | 16.4682% and 14.0105% | 35.688% and 65.784% | 42.752% and 81.756%
CC1(C)C(N)=Nc2cc(OCCCN3Cc4ccc(OCCc5cn(CC(=O)N6CCC(CCN7CCCC7)CC6)nn5)cc4C3)c(OCC3CC3)cc21 | 159.496% and 131.919% | 138.652% and 115.905% | 116.392% and 79.0572% | 168.88% and 116.313% | 89.3796% and 92.2926% | 86.2982% and 98.2697%
CC1=C(C)C(=O)C(C(C)(C)CC(=O)N(CCCCSC[C@H]2O[C@@H](n3cnc4c(N)ncnc43)[C@H](O)[C@@H]2O)Cc2cccc(-c3ccc(Cl)cc3)c2)=C(C)C1=O | 167.397% and 142.309% | 129.695% and 107.541% | 154.166% and 104.56% | 134.087% and 102.344% | 85.391% and 116.982% | 82.6503% and 80.5489%
Cc1cc(CN)cc(C)c1-c1ncn(C)c1-c1ccnc2cc(F)ccc12.Cl | 218.867% and 141.584% | 205.957% and 111.843% | 165.285% and 103.632% | 176.587% and 123.725% | 125.215% and 107.577% | 113.008% and 89.6778%
OCCn1cc(-c2ccc3c(c2)CCC3=NO)c(-c2ccncc2)n1 | 89.1031% and 90.5828% | 141.492% and 108.175% | 111.659% and 102.228% | 89.8993% and 62.6286% | 88.6835% and 115.401% | 96.5689% and 114.574%
COc1cc2c(cc1NS(=O)(=O)c1ccc(Br)cc1C)n(C)c(=O)n2C | 85.4589% and 143.275% | 107.386% and 104.912% | 82.8669% and 66.0742% | 161.71% and 111.182% | 90.5613% and 147.551% | 87.5695% and 113.305%
Cc1cc(F)c(C(=O)Nc2cccc(-c3nncn3C(C)C)n2)cc1-n1cnc(C2CC2)c1 [SELONSERTIB] | 102.175% and 96.1469% | 88.4921% and 93.9846% | 115.111% and 84.0268% | 104.846% and 82.0651% | 96.1672% and 86.9686% | 76.8515% and 83.4833%
CCOc1cc(N2CCC(O)CC2)ccc1Nc1ncc2c(n1)N(C1CCCC1)CCC(=O)N2C | 54.2917% and 71.4425% | 45.2272% and 91.5167% | 71.8666% and 49.1195% | 54.8924% and 49.401% | 101.764% and 118.746% | 133.409% and 125.513%
